# Assay results reported in US20130136772A1, “REGULATION OF IMMUNE RESPONSE BY COLOCYNTHIN AND/OR ITS DERIVATIVES” (priority 2010, published 2013).
# Columns and labels:
# vascular permeability = assay: Acetic acid-induced vascular permeability; assay type: in vivo, mice; conditions: for DYE CONCENTRATION: Evans blue, acetic acid i.p.
# Experimental: Acetic acid-induced increased vascular permeability in mouse model is a capillary permeability assay. Reduction in the increased peritoneal vascular permeability indicates the suppression of the vascular response in the process of acute inflammation.
# Mice were injected with […] of Evans blue dye (0.25% w/v in normal saline) intravenously after 30 min of oral administration of the drug. Fifteen minutes later, the mice were injected intraperitoneally (1 ml/100 g of body weight) with freshly prepared 0.6% of acetic acid (v/v) in normal saline. After 30 min of acetic acid injection, the peritoneal cavities were washed with 5 ml of heparinised sterile normal saline and centrifuged (3000×g) for 10 min Absorbance of the supernatant was measured at 610 nm using a spectrophotometer (Table 3) [Whittle B. A. The use of changes in capillary permeability in mice to distinguish between narcotic and non-narcotic analgesics. Brit J Pharmacol 1964; 2: 246-253].
# IL-2 = assay: Intracellular IL-2 expression in SRBC immunised mice; assay type: in vivo, Swiss albino mice; conditions: graded doses; most significant suppression at 10 mg/kg p.o.
# Experimental: Estimation of intracellular cytokines: The animals were immunized as mentioned above. After 6 days of drug administration, the animals were challenged on day 7. After 48 h of challenge, the blood was collected in the tubes containing EDTA (anti-coagulant) from retro-orbital plexes of animals to determine the effect of test material on the expression of intracellular IL-2 and IFN-γ (Th1) and IL-4 (Th2) cytokines. In this study, PE labeled IL-2 monoclonal antibody was used in one set and PE labeled IFN-γ and FITC labelled IL-4 monoclonal antibody was used in the other set of experimentation (FIG. 7, 8, 9).
# [1] = system: cell mediated immune response (DTH); assay: SRBC induced delayed type hypersensitivity (DTH) response; assay type: in vivo, mice; conditions: for FOOT PAD THICKNESS Mean ± SE: 24 h after SRBC challenge
# Experimental: Test material was administered 2 h after immunization of mice by 200 μl of 5×10^9 SRBCs/ml. On 7th day, the thickness of the left hind foot was measured with spheromicrometer (0.01 mm pitch) and was considered as control. These mice were then challenged by injecting the 20 μl of 5×10^9 SRBCs/ml intradermally into the left hind footpad. The footpad thickness was measured again at 24 h after challenge (Doherty, 1981).
# leucocyte migration = assay: In vivo leucocyte migration (carrageenan induced pleurisy); design: species or system mice; conditions: for EXUDATE VOLUME Mean ± S.E.: 1 h before and 6 h after carrageenan, pleural exudate at 24 h
# Experimental: Mice were injected with 0.2 ml of carrageenan (1% w/v) solution in sterilised normal saline into the pleural cavity by the modified method of Meacock and Kitchen, 1979 [Meacock S C R, Kitchen E A, (1979). Effect of non-steroidal antiinflammatory drug benoxaprofen on leukocyte migration. Journal of Pharmacy & Pharmacology; 31: 366-370]. The test drug was administered orally 1 h before and 6 h after the injection. After 24 h of carrageenan injection the pleural exudate was collected, volume measured and the total leucocyte count of the pleural fluid was determined (Table 3). Flowcytometry as a tool for evaluation of neutrophils is particularly useful because of their larger size than monocytes and lymphocytes when analysed on the forward scatter [FSc]. The percentage of these can be analysed by selectively ‘gating’ the neutrophils without physical separation of the cells (FIG. 4).
# CD4+ T cells = assay: Lymphocyte immunophenotyping, CD4+ T cell population in SRBC immunised mice; assay type: in vivo, Swiss albino mice; conditions: graded doses; most significant suppression at 5 and 10 mg/kg vs sensitized control
# Excerpt: Immunophenotyping focuses on lymphocyte populations involved in acquired immunity. Specific molecules present on the cell surface defines characteristics of lymphocytes such as state of activation or functional capabilities. Murine monoclonal antibodies conjugated to a fluorochrome and directed against co-receptors CD4 and CD8 were used in a multi parametric flowcytometric assay to quantify the lymphocyte subsets associated with the cell-mediated immune response.
# Estimation of T cell surface markers: On day 0, mice were immunized by injecting 200 μl of 5×10^9 SRBC/ml intraperitonially. Drug administration was carried out for 6 days including the day of immunization. Same amount of SRBC was used to challenge the animals on day 7. After 24 h of challenge, blood was taken from retro-orbital plexus of animals for estimation of CD4^+ and CD8^+ T cells. 100 μl of whole blood was taken in each tube and FITC (fluorescein isothiocyanate) labelled CD4+ and PE (phycoerythrin) labelled CD8+ monoclonal antibodies were added and mixed gently. Tubes were incubated in the dark for 30 min. at room temperature. Subsequently, 2 ml of 1× FACS lysing solution was added at room temperature with gentle mixing. Samples were again incubated at room temperature for 10 min. […]
# [2] = graded oral doses, highly significant effect at 10 mg/kg oral dose
compound,measurement,setting,value
"CC(=O)OC(C)(C)/C=C/C(=O)[C@](C)(O)[C@H]1[C@H](O)C[C@@]2(C)[C@@H]3CC=C4[C@@H](C=C(O[C@@H]5O[C@H](CO)[C@@H](O)[C@H](O)[C@H]5O)C(=O)C4(C)C)[C@]3(C)C(=O)C[C@]12C [AD-B-63B, 2-O-β-D-glucopyranosyl cucurbitacin E]",percent reduction of dye concentration,vascular permeability; 1 mg/kg p.o.,(10.71%↓)
same,DYE CONCENTRATION,vascular permeability; 1 mg/kg p.o.,0.50 ± 0.02 μg/25 g mouse
same,percent reduction of dye concentration,vascular permeability; 5 mg/kg p.o.,32.14%
same,DYE CONCENTRATION,vascular permeability; 5 mg/kg p.o.,0.38 ± 0.02 μg/25 g mouse
same,percent reduction of dye concentration,"vascular permeability; 5 mg/kg p.o., listed as AD-B-63-B",(32.14%↓)
same,percent reduction of dye concentration,vascular permeability; 10 mg/kg p.o.,35.71%
same,DYE CONCENTRATION,vascular permeability; 10 mg/kg p.o.,0.36 ± 0.02 μg/25 g mouse
same,percent reduction of dye concentration,"vascular permeability; 10 mg/kg p.o., listed as AD-B-63-B",(35.71%↓)
same,expression of intracellular IL-2,IL-2,decrease
same,PERCENT INHIBITION (DTH response),[1]; 1 mg/kg p.o.,15.21↓ %
same,FOOT PAD THICKNESS Mean ± SE,[1]; 1 mg/kg p.o.,0.78 ± 0.01 mm
same,PERCENT INHIBITION (DTH response),[1]; 5 mg/kg p.o.,28.26↓ %
same,FOOT PAD THICKNESS Mean ± SE,[1]; 5 mg/kg p.o.,0.66 ± 0.01 mm
same,PERCENT INHIBITION (DTH response),[1]; 10 mg/kg p.o.,29.35↓ %
same,FOOT PAD THICKNESS Mean ± SE,[1]; 10 mg/kg p.o.,0.65 ± 0.02 mm
same,SRBC induced DTH reaction,"[1]; orally administered, graded doses",dose dependent decrease
same,% inhibition of exudate volume,leucocyte migration; 1 mg/kg p.o.,(22.72%↓)
same,% inhibition of total leucocyte count,leucocyte migration; 1 mg/kg p.o.,(12.12%↓)
same,EXUDATE VOLUME Mean ± S.E.,leucocyte migration; 1 mg/kg p.o.,0.85 ± 0.10 mL
same,% inhibition of exudate volume,leucocyte migration; 5 mg/kg p.o.,(38.18%↓)
same,% inhibition of total leucocyte count,leucocyte migration; 5 mg/kg p.o.,(23.52%↓)
same,EXUDATE VOLUME Mean ± S.E.,leucocyte migration; 5 mg/kg p.o.,0.68 ± 0.18 mL
same,% inhibition of exudate volume,leucocyte migration; 10 mg/kg p.o.,(44.54%↓)
same,% inhibition of total leucocyte count,leucocyte migration; 10 mg/kg p.o.,(24.39%↓)
same,EXUDATE VOLUME Mean ± S.E.,leucocyte migration; 10 mg/kg p.o.,0.61 ± 0.10 mL
same,exudates volume against control,leucocyte migration; [2],dose dependent inhibition
same,total leucocytes count against control,leucocyte migration; [2],dose dependent inhibition
same,percentage of CD4+ T-cell population,CD4+ T cells,decrease
